Assay results from ChEMBL document CHEMBL1142040, “Melanocortin subtype-4 receptor agonists containing a piperazine core with substituted aryl sulfonamides” (Bioorg Med Chem Lett, 2005).
Where “and” joins values, the source holds several entries; their conditions need not be identical. Identical values can stand only once.

How the values were obtained:
[1] = molecular target: T1, Melanocortin receptor 4 (Homo sapiens, UniProt P32245); assay: In vitro inhibitory concentration required against melanocortin 4 receptor using [125I]NDP-MSH as radioligand
T1 sequence (P32245 whole entry): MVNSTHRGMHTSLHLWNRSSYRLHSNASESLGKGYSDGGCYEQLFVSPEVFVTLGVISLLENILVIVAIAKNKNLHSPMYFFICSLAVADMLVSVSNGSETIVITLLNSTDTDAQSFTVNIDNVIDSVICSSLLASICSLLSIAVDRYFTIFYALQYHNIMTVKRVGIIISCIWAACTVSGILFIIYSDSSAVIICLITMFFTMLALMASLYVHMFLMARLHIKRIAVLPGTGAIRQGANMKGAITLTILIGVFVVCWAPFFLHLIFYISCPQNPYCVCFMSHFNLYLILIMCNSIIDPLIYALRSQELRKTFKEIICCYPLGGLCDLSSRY

[2] = molecular target: T1, Melanocortin receptor 4; assay: Effective concentration determined against melanocortin-4 receptor; assay type: functional
[3] = molecular target: Melanocortin receptor (M4 and M5) (Homo sapiens) (UniProt P32245+P33032); assay: Selectivity for melanocortin 4 receptor compared to melanocortin 5 receptor in vitro; assay type: functional
Sequence of Melanocortin receptor (M4 and M5) (Homo sapiens) (P32245 whole entry, looked up): as the sequence (P32245 whole entry) above
Sequence of Melanocortin receptor (M4 and M5) (Homo sapiens) (P33032 whole entry, looked up): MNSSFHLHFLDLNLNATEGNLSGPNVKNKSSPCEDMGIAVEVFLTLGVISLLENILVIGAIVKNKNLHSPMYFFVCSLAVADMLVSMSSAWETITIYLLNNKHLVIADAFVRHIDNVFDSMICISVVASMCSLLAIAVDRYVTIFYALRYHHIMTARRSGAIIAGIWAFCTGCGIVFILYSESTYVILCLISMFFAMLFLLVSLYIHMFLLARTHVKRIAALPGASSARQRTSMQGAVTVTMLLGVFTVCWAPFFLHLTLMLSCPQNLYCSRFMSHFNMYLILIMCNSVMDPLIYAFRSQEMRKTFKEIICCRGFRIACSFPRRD

[4] = molecular target: Melanocortin receptor 3 (Homo sapiens, UniProt P41968); assay: Effective concentration determined against melanocortin-3 receptor; assay type: functional
Sequence of Melanocortin receptor 3 (P41968 whole entry): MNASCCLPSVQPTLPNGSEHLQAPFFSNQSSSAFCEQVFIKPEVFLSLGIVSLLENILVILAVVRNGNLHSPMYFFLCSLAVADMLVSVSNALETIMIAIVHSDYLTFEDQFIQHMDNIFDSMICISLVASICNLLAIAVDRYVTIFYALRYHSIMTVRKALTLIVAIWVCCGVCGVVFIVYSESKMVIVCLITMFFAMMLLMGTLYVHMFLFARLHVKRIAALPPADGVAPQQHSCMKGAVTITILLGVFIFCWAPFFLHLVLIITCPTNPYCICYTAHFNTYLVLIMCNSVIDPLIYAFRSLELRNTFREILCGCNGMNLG

[5] = molecular target: Melanocortin receptor 5 (Homo sapiens, UniProt P33032); assay: Effective concentration determined against melanocortin-5 receptor; assay type: functional
Sequence of Melanocortin receptor 5 (P33032 whole entry): as the sequence (P33032 whole entry, looked up) above

[6] = Bioavailability concentration of compound was determined in mice; assay type: ADME, organism-based; conditions: mouse, in vivo
[7] = Half life of compound was determined in mice; assay type: ADME; conditions: mouse, in vivo
[8] = Brain concentration of compound was determined in mice; assay type: ADME; conditions: mouse, in vivo
[9] = Tmax of compound was determined in mice; assay type: ADME; conditions: mouse, in vivo
[10] = Maximum plasma level concentration was determined in mice; assay type: ADME, organism-based; conditions: mouse
[11] = Clearance value of compound was determined in mice; assay type: ADME, organism-based; conditions: mouse, in vivo
[12] = Volume of distribution of compound was determined in mice; assay type: ADME, organism-based; conditions: mouse, in vivo

Structure (SMILES) | IC50 [1] [nM] | EC50 [2] | other results
CN(c1ccccc1N1CCN(C(=O)[C@@H](Cc2ccc(Cl)cc2)NC(=O)[C@@H]2Cc3ccccc3CN2)CC1)S(C)(=O)=O | 210 | 4 nM | –
CS(=O)(=O)N(CC1CC1)c1ccccc1N1CCN(C(=O)[C@@H](Cc2ccc(Cl)cc2)NC(=O)c2cnc3ccccc3c2)CC1 | 94 | 60 nM | –
CS(=O)(=O)N(CCN)c1ccccc1N1CCN(C(=O)[C@@H](Cc2ccc(Cl)cc2)NC(=O)[C@@H]2Cc3ccccc3CN2)CC1 | 35 | < 0.1 nM | Selectivity [3]: 79; EC50 [4]: > 10 µM; EC50 [5]: 79 nM
CS(=O)(=O)N(CC1CC1)c1ccccc1N1CCN(C(=O)[C@@H](Cc2ccc(Cl)cc2)NC(=O)c2cc3ccccc3cn2)CC1 | 410 | 18 nM | –
O=C(N[C@H](Cc1ccc(Cl)cc1)C(=O)N1CCN(c2ccccc2NS(=O)(=O)c2ccccc2)CC1)[C@@H]1Cc2ccccc2CN1 | 730 | 120 nM | –
CS(=O)(=O)N(CC1CC1)c1ccccc1N1CCN(C(=O)[C@@H](Cc2ccc(Cl)cc2)NC(=O)c2ccc3ccccc3c2)CC1 | 280 | 63 nM | –
CCCN(c1ccccc1N1CCN(C(=O)[C@@H](Cc2ccc(Cl)cc2)NC(=O)[C@@H]2Cc3ccccc3CN2)CC1)S(C)(=O)=O | – | 0.44 nM | bioavailability [6]: 20%; T1/2 [7]: 26.4 min; Cbrain [8]: 130 ng/g; Tmax [9]: 15 min; Cmax [10]: 1400 ng/mL; EC50 [4]: > 10 µM; Cl/F [11]: 30 mL/min/kg; EC50 [5]: 210 nM; V2/F [12]: 19 L/kg
O=C(N[C@H](Cc1ccc(Cl)cc1)C(=O)N1CCN(c2ccccc2NS(=O)(=O)Cc2ccccc2)CC1)[C@@H]1Cc2ccccc2CN1 | 720 | 65 nM | –
CS(=O)(=O)Nc1ccccc1N1CCN(C(=O)[C@@H](Cc2ccc(Cl)cc2)NC(=O)[C@@H]2Cc3ccccc3CN2)CC1 | 340 | 11 nM | Selectivity [3]: 21; EC50 [4]: > 10 µM; EC50 [5]: 230 nM

The next lines start with results.

IC50 [1] [nM] | EC50 [2] | Structure (SMILES) | other results
83 | 49 nM | CC(C)CCN1CC(C(=O)N[C@H](Cc2ccc(Cl)cc2)C(=O)N2CCN(c3ccccc3N(CC3CC3)S(C)(=O)=O)CC2)C1 | –
61 | 0.58 nM and 0.6 nM | CS(=O)(=O)N(CC1CC1)c1ccccc1N1CCN(C(=O)[C@@H](Cc2ccc(Cl)cc2)NC(=O)[C@@H]2Cc3ccccc3CN2)CC1 | Selectivity [3]: 170; EC50 [4]: 7 µM; EC50 [5]: 170 nM
120 | 12 nM | CN1CCC(C(=O)N[C@H](Cc2ccc(Cl)cc2)C(=O)N2CCN(c3ccccc3N(CC3CC3)S(C)(=O)=O)CC2)CC1 | –
110 | 8.6 nM | CCN1CCC(C(=O)N[C@H](Cc2ccc(Cl)cc2)C(=O)N2CCN(c3ccccc3N(CC3CC3)S(C)(=O)=O)CC2)CC1 | –
29 | 27 nM | CS(=O)(=O)N(CC1CC1)c1ccccc1N1CCN(C(=O)[C@@H](Cc2ccc(Cl)cc2)NC(=O)c2ccc3ncccc3c2)CC1 | –
67 | 1.8 nM | CS(=O)(=O)N(CC1CC1)c1ccccc1N1CCN(C(=O)[C@@H](Cc2ccc(Cl)cc2)NC(=O)C2CN(C3CCCCC3)C2)CC1 | –
